# Assay results from patent publication US7101875B2, “Methods for treating arthritic disorders” (Wyeth, priority 2001, dated 2006).
# System: not given
# Experiment: not given
# Settings: not given
row,melting point,Compound
1,117 to 119 °C,"O=C(O)c1ccc(OCCc2c(CCNS(=O)(=O)Cc3ccc(Cl)c(Cl)c3)n(C(c3ccccc3)c3ccccc3)c3ccc(Cl)cc23)cc1F [Example 296, 4-{2-[1-benzhydryl-5-chloro-2-(2-{[(3,4-dichlorobenzyl)sulfonyl]amino}ethyl)-1H-indol-3-yl]ethoxy}-2-fluorobenzoic acid]"
2,207 to 208 °C,"CC(C)(Cc1ccc(S(=O)(=O)CCc2c(CCNS(=O)(=O)Cc3ccc(Cl)c(Cl)c3)n(C(c3ccccc3)c3ccccc3)c3ccc(Cl)cc23)cc1)C(=O)O [Example 298, 3-[4-({2-[1-benzhydryl-5-chloro-2-(2-{[(3,4-dichlorobenzyl)sulfonyl]amino}ethyl)-1H-indol-3-yl]ethyl}sulfonyl)phenyl]-2,2-dimethylpropanoic acid]"
3,132 to 135 °C,"O=C(O)c1ccc(OCCc2c(CCNS(=O)(=O)Cc3ccccc3Cl)n(C(c3ccccc3)c3ccccc3)c3ccc(Cl)cc23)cc1F [Example 297, 4-{2-[1-benzhydryl-5-chloro-2-(2-{[(2-chlorobenzyl)sulfonyl]amino}ethyl)-1H-indol-3-yl]ethoxy}-2-fluorobenzoic acid]"

# Molecular target: T1, cPLA2 (Homo sapiens, UniProt P47712)
# T1 sequence (P47712 1-749): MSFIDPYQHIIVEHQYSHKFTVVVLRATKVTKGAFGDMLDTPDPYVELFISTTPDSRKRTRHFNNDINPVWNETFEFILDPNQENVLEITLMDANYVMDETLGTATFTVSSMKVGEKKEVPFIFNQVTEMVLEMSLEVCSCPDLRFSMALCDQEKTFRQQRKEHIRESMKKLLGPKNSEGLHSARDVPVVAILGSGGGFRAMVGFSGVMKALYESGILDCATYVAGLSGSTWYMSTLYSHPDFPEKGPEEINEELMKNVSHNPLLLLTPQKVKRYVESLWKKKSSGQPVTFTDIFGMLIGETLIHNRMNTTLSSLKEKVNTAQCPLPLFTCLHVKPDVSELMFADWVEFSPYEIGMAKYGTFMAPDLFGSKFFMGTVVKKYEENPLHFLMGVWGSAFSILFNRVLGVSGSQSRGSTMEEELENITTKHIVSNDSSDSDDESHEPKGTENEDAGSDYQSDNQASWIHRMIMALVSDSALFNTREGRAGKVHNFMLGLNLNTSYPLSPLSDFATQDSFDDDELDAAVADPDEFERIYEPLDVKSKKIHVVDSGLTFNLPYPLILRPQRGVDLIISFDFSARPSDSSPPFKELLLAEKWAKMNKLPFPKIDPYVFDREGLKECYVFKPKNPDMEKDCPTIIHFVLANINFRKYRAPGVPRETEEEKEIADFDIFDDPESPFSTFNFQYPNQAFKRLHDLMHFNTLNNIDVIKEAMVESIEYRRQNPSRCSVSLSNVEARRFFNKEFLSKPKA
# Experiment: Coumarine Assay (hydrolysis of 7-hydroxycoumarinyl 6-heptenoate by cPLA2, fluorometric)
# Assay type: biochemical
# Settings: 60 μM 7-hydroxycoumarinyl 6-heptenoate substrate, 4 μg cPLA2, pH 7.5, excitation 360 nm / emission 460 nm; read-out: Coumarin IC50
row,Compound,IC50
1,"4-[2-(1-benzhydryl-5-chloro-2-{2-[({2-[(3R,5S)-3,5-dimethylmorpholin-4-yl]ethyl}sulfonyl)amino]ethyl}-1H-indol-3-yl)ethoxy]benzoic acid [Example 250]",2100 nM
2,"4-{2-[1-benzhydryl-5-chloro-2-(2-{[(2,6-dimethylbenzyl)sulfonyl]amino}ethyl)-1H-indol-3-yl]ethoxy}benzoic acid [Example 279]",160 nM
3,"CC(C)Oc1cc(OCCc2c(CCNS(=O)(=O)Cc3ccc(Cl)c(Cl)c3)n(C(c3ccccc3)c3ccccc3)c3ccc(Cl)cc23)ccc1C(=O)O [Example 300, 4-{2-[1-benzhydryl-5-chloro-2-(2-{[(3,4-dichlorobenzyl)sulfonyl]amino}ethyl)-1H-indol-3-yl]ethoxy}-2-isopropoxybenzoic acid]",> 2000 nM
4,O=C(O)c1ccc(OCCc2c(CCNS(=O)(=O)Cc3ccc(Cl)c(Cl)n3)n(C(c3ccccc3)c3ccccc3)c3ccc(Cl)cc23)cc1 [Example 76],400 nM
5,COc1ccccc1SCS(=O)(=O)NCCc1c(CCOc2ccc(C(=O)O)cc2)c2cc(Cl)ccc2n1C(c1ccccc1)c1ccccc1 [Example 83],450 nM
6,4-{2-[1-Benzhydryl-5-chloro-2-{2-[({2-trifluoromethylsulfonylbenzene}-sulfonyl)amino]ethyl}-1H-indol-3-yl)propyl]benzoic acid [Example 208],240 nM
7,2-{2-[1-Benzhydryl-5-chloro-2-(2-phenylmethanesulfonylamino-ethyl)-1H-indol-3-yl]-ethoxy}-benzoic acid [Example 283],500 nM
8,"CC(Cc1ccc(C(=O)O)cc1)c1c(CCNS(=O)(=O)Cc2ccccc2[N+](=O)[O-])n(C(c2ccccc2)c2ccccc2)c2ccc(Cl)cc12 (stereo not drawn) [Example 56, 4-{2-[1-Benzhydryl-5-chloro-2-{2-[({2-nitrobenzyl}-sulfonyl)amino]ethyl}-1H-indol-3-yl)propyl]benzoic acid]",130 nM
9,"Nc1ccccc1CS(=O)(=O)NCCc1cc(OCCc2cn(C(c3ccccc3)c3ccccc3)c3ccc(Cl)cc23)ccc1C(=O)O [Example 16, 2-(2-{[(2-Aminobenzyl)sulfonyl]amino}ethyl)-4-{2-[1-benzhydryl-5-chloro-1H-indol-3-yl]ethoxy}benzoic acid]",980 nM
